Measurements taken from the supplement of paper PMC10307832.

Assays:
Test in all cases: relative viability (nuclei count vs DMSO), 5 days (fraction); higher = more cells survive
[1] = compound: CC[C@H](C)N1C=C(C2=C(C=C(C=C21)C3=CN=C(C=C3)N4CCNCC4)C(=O)NCC5=C(C=C(NC5=O)C)C)C [GSK126] + CC1(C)CCC(c2ccc(Cl)cc2)=C(CN2CCN(c3ccc(C(=O)NS(=O)(=O)c4ccc(N[C@H](CCN5CCOCC5)CSc5ccccc5)c(S(=O)(=O)C(F)(F)F)c4)cc3)CC2)C1 [Navitoclax] (partner 0.5 µM)
Procedure, shortened: (§1)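 After 5 days of treatment, lung cancer cells in 1536-well plates were fixed and stained in a single step (final 0.05% Triton X-100, 1% formaldehyde, 1 ug/ml Hoechst) and their nuclei counted on 4× images. Treatment had been applied by pin tool the day after seeding as one drug alone or as a fixed anchor-drug dose with five library-drug doses (not always all listed) in √10 steps. Relative viability is the nuclei count of treated wells divided by that of vehicle wells, and values are medians of duplicate plates.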

[2] = compound: NS(=O)(=O)OC[C@@H]1C[C@@H](n2ccc3c(N[C@H]4CCc5ccccc54)ncnc32)C[C@@H]1O [MLN4924] + O=C(CCCCCCC(=O)Nc1ccccc1)NO [Vorinostat] (partner 1 µM)
Procedure, shortened: as §1

[3] = compound: NS(=O)(=O)OC[C@@H]1C[C@@H](n2ccc3c(N[C@H]4CCc5ccccc54)ncnc32)C[C@@H]1O [MLN4924] + Nc1ncn([C@H]2C[C@H](O)[C@@H](CO)O2)c(=O)n1 [Decitabine] (partner 2 µM)
Procedure, shortened: as §1

[4] = compound: NS(=O)(=O)OC[C@@H]1C[C@@H](n2ccc3c(N[C@H]4CCc5ccccc54)ncnc32)C[C@@H]1O [MLN4924] + NC(=O)Nc1cc(-c2cccc(F)c2)sc1C(=O)N[C@H]1CCCNC1 [AZD7762] (partner 0.2 µM)
Procedure, shortened: as §1

Cell Line | relative viability ([1]; first compound 0.08 µM) | relative viability ([1]; first compound 0.253 µM) | relative viability ([1]; first compound 0.8 µM) | relative viability ([1]; first compound 2.53 µM) | relative viability ([1]; first compound 8 µM) | relative viability ([2]; first compound 0.04 µM) | relative viability ([2]; first compound 0.1265 µM) | relative viability ([2]; first compound 0.4 µM) | relative viability ([2]; first compound 1.265 µM) | relative viability ([2]; first compound 4 µM) | relative viability ([3]; first compound 0.04 µM) | relative viability ([3]; first compound 0.1265 µM) | relative viability ([3]; first compound 0.4 µM) | relative viability ([3]; first compound 1.265 µM) | relative viability ([3]; first compound 4 µM) | relative viability ([4]; first compound 0.04 µM) | relative viability ([4]; first compound 0.1265 µM) | relative viability ([4]; first compound 0.4 µM) | relative viability ([4]; first compound 1.265 µM) | relative viability ([4]; first compound 4 µM)
IA-LM | 0.702 | 0.691 | 0.758 | 0.761 | 0.947 | 0.653 | 0.194 | 0.17 | 0.0544 | 0.0516 |  |  |  |  |  |  |  |  |  | 
NCI-H661 |  |  |  |  |  | 0.601 | 0.619 | 0.389 | 0.317 | 0.382 | 0.587 | 0.539 | 0.422 | 0.281 | 0.331 |  |  |  |  | 
NCI-H358 |  |  |  |  |  | 0.621 | 0.479 | 0.264 | 0.0895 | 0.0817 | 0.2 | 0.206 | 0.183 | 0.111 | 0.148 | 0.518 | 0.472 | 0.369 | 0.144 | 0.215
Calu-6 | 0.936 | 0.858 | 0.853 | 0.842 | 0.795 |  |  |  |  |  |  |  |  |  |  |  |  |  |  | 
NCI-H1703 | 1.49 | 0.942 | 1.02 | 0.898 | 0.748 |  |  |  |  |  |  |  |  |  |  | 0.135 | 0.126 | 0.111 | 0.11 | 0.123
EBC-1 | 0.449 | 0.407 | 0.365 | 0.477 | 0.362 |  |  |  |  |  |  |  |  |  |  |  |  |  |  | 
NCI-H2228 | 0.55 | 1.01 | 1.1 | 0.863 | 0.837 | 0.73 | 0.601 | 0.581 | 0.13 | 0.0923 |  |  |  |  |  |  |  |  |  | 
CAL-12T | 1.27 | 1.27 | 0.967 | 1.1 | 1.33 | 0.792 | 0.921 | 0.409 | 0.259 | 0.144 |  |  |  |  |  | 0.522 | 0.514 | 0.365 | 0.274 | 0.247
SK-LU-1 | 0.857 | 0.819 | 0.911 | 0.915 | 0.855 | 0.581 | 0.425 | 0.161 | 0.196 | 0.244 | 0.645 | 0.661 | 0.309 | 0.29 | 0.24 |  |  |  |  | 
SW 900 |  |  |  |  |  |  | 0.414 | 0.182 | 0.175 | 0.208 |  | 0.427 | 0.344 | 0.27 | 0.211 |  | 0.806 | 0.467 | 0.331 | 0.259
NCI-H522 |  |  |  |  |  | 0.704 | 0.726 | 0.567 | 0.344 | 0.378 | 0.626 | 0.598 | 0.571 | 0.401 | 0.406 | 0.919 | 0.69 | 0.588 | 0.353 | 0.383
SW 1573 | 0.894 | 0.955 | 1.2 | 1.06 | 1.07 | 0.48 | 0.521 | 0.14 | 0.0422 | 0.0551 | 0.525 | 0.313 | 0.158 | 0.0741 | 0.0974 |  |  |  |  | 
A549 | 1.37 | 1.28 | 1.23 | 1.24 | 1.13 |  |  |  |  |  | 0.213 | 0.189 | 0.112 | 0.0579 | 0.0418 |  |  |  |  | 
NCI-H520 | 1.24 | 1.02 | 1.03 | 1.14 | 1.34 | 0.499 | 0.499 | 0.321 | 0.177 | 0.223 | 0.447 | 0.338 | 0.249 | 0.148 | 0.207 |  |  |  |  | 
